Patent US9994616B2, “c-Met protein agonist” (The University of Tokyo, priority 2013, dated 2018)
Read-outs that look alike come from different tables or passages of the source. Where a SMILES comes first, the peptide text is derived from it. Bridges are numbered along the chain shown (N, C = ends). Where no end group is shown, it is not given here. [ ]: non-standard residue; d: D form. NMeR = CN[C@@H](CCCNC(=N)N)C(=O)O; NMeF = CN[C@@H](Cc1ccccc1)C(=O)O; NMeN = CN[C@@H](CC(N)=O)C(=O)O; NMeC = CN[C@@H](CS)C(=O)O

How the values were obtained:
c-Met-Fc = c-Met-Fc (Homo sapiens, UniProt P08581); assay: Binding ability by surface plasmon resonance (SPR, Biacore); conditions: for kon: read-out: ka
c-Met-Fc, sequence (P08581 with tags, fused parts or gaps limits assumed): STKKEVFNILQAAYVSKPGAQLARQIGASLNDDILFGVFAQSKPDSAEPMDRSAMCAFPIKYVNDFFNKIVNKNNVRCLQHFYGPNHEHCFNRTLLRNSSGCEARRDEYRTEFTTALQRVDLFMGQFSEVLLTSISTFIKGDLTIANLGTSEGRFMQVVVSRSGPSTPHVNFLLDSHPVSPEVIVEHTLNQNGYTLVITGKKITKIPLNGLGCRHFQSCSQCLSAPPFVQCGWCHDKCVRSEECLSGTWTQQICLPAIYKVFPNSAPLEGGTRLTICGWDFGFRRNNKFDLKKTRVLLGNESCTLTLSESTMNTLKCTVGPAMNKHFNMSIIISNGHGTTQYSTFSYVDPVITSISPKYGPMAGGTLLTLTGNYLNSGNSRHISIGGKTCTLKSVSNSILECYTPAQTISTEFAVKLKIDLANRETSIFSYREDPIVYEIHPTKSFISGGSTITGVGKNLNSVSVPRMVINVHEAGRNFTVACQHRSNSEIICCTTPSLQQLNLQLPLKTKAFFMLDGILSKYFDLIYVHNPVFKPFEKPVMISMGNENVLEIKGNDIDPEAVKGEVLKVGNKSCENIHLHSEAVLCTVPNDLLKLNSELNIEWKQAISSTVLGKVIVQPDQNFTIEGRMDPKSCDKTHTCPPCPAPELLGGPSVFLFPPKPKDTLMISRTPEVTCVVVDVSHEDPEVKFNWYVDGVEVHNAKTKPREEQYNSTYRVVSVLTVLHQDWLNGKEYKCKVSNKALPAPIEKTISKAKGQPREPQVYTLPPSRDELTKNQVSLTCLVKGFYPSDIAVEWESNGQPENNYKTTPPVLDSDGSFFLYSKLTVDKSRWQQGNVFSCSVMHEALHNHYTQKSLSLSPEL
c-Met-Fc, sequence (P08581 25-307 limits assumed): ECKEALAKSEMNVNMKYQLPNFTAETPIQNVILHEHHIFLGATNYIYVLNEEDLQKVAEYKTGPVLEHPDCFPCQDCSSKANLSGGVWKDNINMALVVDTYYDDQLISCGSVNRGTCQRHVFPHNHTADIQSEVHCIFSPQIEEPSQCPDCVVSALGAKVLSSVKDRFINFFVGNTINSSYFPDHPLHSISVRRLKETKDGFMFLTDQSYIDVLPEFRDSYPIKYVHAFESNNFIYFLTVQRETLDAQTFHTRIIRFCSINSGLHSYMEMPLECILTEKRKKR
Method: Binding ability of the thioether macrocyclic peptide was evaluated by SPR measurement using Biacore (GE Healthcare).
As a sensor chip, Sensor Chip CM5 was used and an anti-IgG antibody was immobilized on a measurement lane and a control lane by using Human Antibody Capture Kit.
On the measurement lane was immobilized c-Met-Fc, while on the control lane was immobilized Fc protein.
As a running buffer, HBS-EP+ buffer containing 0.1% DMSO was used and a dissociation constant of the thioether macrocyclic peptide was calculated at 5 different concentrations by using the single-kinetics method.

c-Met = biological target: T1, c-Met (Homo sapiens, UniProt P08581); assay: Activity of dimeric peptide by ELISA (c-Met phosphorylation level in EHMES-1 cells); assay type: cell-based
T1 construct: endogenous in cells; host or cells: EHMES-1 (human mesothelioma)
T1 sequence (P08581 25-1390): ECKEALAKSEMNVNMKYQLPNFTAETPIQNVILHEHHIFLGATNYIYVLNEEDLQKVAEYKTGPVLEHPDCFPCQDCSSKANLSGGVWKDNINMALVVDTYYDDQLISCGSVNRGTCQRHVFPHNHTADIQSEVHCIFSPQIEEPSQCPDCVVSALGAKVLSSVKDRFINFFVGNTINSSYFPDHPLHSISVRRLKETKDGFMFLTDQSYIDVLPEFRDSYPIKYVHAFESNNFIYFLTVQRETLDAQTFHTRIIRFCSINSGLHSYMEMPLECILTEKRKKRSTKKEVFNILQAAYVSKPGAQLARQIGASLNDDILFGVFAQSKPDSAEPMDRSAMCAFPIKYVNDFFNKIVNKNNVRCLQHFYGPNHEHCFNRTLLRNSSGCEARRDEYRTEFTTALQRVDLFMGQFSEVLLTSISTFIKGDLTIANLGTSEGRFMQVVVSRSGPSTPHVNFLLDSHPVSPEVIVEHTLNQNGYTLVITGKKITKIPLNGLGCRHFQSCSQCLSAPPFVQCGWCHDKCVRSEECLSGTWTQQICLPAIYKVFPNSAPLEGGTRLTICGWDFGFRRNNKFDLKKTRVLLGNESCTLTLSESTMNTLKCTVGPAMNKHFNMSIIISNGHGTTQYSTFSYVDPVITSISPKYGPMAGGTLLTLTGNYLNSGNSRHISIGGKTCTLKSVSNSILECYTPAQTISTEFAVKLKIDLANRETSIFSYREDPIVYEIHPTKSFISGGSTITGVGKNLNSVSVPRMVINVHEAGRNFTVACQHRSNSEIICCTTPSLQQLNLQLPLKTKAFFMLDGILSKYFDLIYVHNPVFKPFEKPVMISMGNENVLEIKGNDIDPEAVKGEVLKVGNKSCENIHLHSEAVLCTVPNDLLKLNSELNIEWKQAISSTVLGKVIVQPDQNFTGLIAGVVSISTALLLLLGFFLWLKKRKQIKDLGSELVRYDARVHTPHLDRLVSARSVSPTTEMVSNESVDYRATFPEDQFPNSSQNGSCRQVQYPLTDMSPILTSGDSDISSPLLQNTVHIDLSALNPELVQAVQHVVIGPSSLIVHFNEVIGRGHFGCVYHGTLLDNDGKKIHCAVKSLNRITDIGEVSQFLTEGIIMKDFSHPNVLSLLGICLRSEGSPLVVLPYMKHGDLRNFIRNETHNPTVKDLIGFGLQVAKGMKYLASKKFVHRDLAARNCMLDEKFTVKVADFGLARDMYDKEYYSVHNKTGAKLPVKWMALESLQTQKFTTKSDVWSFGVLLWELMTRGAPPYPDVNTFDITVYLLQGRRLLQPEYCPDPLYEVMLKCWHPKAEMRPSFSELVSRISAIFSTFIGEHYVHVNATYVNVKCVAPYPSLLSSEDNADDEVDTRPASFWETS
Method: Each dimeric peptide was added to human EHMES-1 cells and the mixture was incubated for 10 minutes to stimulate the cells.
As a control experiment, a recombinant human HGF protein was added and the mixture was incubated for 10 minutes to stimulate cells.
A phosphorylation level of c-Met was quantitatively analyzed using ELISA.

human HuCCT1 cells = assay: Cell migration of HuCCT1 cells on pore-containing plate; assay type: cell-based; conditions: Table 13
Method: In addition, human HuCCT1 cells were seeded on a pore-containing plate and cultured in a medium mixed with each of the dimeric peptides to evaluate activation of cell migration ability.

[1] = Stability of thioether macrocyclic peptide in human serum pool (LC-MS); assay type: in vitro ADME; conditions: for remaining at 1 h, 1 μM: Table 8; for remaining at 1 h, 1 μM / remaining at 4 h, 1 μM: human serum pool; for remaining at 1 h, 1 μM / Stability in human serum (undegraded portion/time) / remaining at 4 h, 1 μM: 37° C.; for Stability in human serum (undegraded portion/time): Table 10; for remaining at 4 h, 1 μM: Table 9; for Stability in serum (in words): human serum
Method: A DMSO solution of the thioether macrocyclic peptide to be evaluated was dissolved in a human serum pool to give a concentration of 1 μM. The human serum pool containing the thioether macrocyclic peptide thus prepared was incubated at 37° C.
After an elapse of the evaluation time, the human serum pool containing the thioether macrocyclic peptide was placed on ice and a peptide serving as an internal standard was added and mixed to give a concentration of 1 μM. The resulting mixture was added to a solid-phase extraction column (Hyper Sep SPE column, Thermo Scientific), washed with a 5% aqueous acetonitrile solution containing 0.1% TFA, and then purified by eluting with a 70% aqueous acetonitrile solution containing 0.1% TFA.
The molecular weight of the purified product was analyzed using LC-MS and the cleavage site in the serum was identified. In addition, the thioether macrocyclic peptide which had remained without being cleaved was quantitatively determined by comparing an amount relative to the internal standard at every incubation time.

[2] = Table 11, monomer and dimeric peptides

Molecule	kd (c-Met-Fc; Table 8, c-Met-Fc)	kon (c-Met-Fc; Table 8, c-Met-Fc) [M⁻¹ s⁻¹]	remaining at 1 h, 1 μM [1] [%]	kon (c-Met-Fc; Table 10, c-Met-Fc) [M⁻¹ s⁻¹]	Stability in human serum (undegraded portion/time) ([1]; 2 h) [%/2 h]	remaining at 4 h, 1 μM ([1]; 4 h) [%]	other results
D4-3NMe Bis-MAL-PEG11: dimeric peptide: two D4-3NMe macrocycles linked through C-terminal Cys by Bis-MAL-PEG11 linker ({CH2CO}-[dY]RQFNRRTHEVWNLDCGC; thioether N-16; not fully specified (residue 18); also: two amino acids N-methylated (N6 + N16), dimer: two D4-3NMe macrocycles linked through C-terminal Cys by Bis-MAL-PEG11)							ka (c-Met-Fc; [2]): 0.49 10^6 M^−1s^−1; kd (c-Met-Fc; [2]): 0.040 10^−2 s^−1; Activity (c-Met phosphorylation level by ELISA) (c-Met; Table 12, EHMES-1 cells, 10 minutes stimulation): High; c-Met phosphorylation (c-Met; Table 13): Promote; Cell migration (human HuCCT1 cells): Activate
CC(C)C[C@@H]1NC(=O)[C@H](CC(N)=O)NC(=O)[C@H](Cc2c[nH]c3ccccc23)NC(=O)[C@H](C(C)C)NC(=O)[C@H](CCC(=O)O)NC(=O)[C@H](Cc2c[nH]cn2)NC(=O)[C@H]([C@@H](C)O)NC(=O)[C@H](CCCNC(=N)N)NC(=O)[C@H](CCCNC(=N)N)NC(=O)[C@H](CC(N)=O)NC(=O)[C@H](Cc2ccccc2)NC(=O)[C@H](CCC(N)=O)NC(=O)[C@H](CCCNC(=N)N)N(C)C(=O)[C@@H](Cc2ccc(O)cc2)NC(=O)CSC[C@@H](C(=O)NCC(N)=O)NC(=O)[C@H](CC(=O)O)NC1=O [Peptide N2] ({CH2CO}-[dY][NMeR]QFNRRTHEVWNLDCG-NH2; thioether N-16; C-terminus assumed)	1.0 10^−2 s^−1	710000	5.4				
CC[C@H](C)[C@@H]1NC(=O)[C@H](Cc2ccc(O)cc2)NC(=O)CSC[C@@H](C(=O)NCC(N)=O)NC(=O)[C@H]([C@@H](C)O)NC(=O)[C@H]([C@@H](C)CC)NC(=O)[C@H](Cc2ccccc2)NC(=O)[C@H](CCCNC(=N)N)NC(=O)[C@H](Cc2c[nH]c3ccccc23)NC(=O)[C@H](CC(N)=O)NC(=O)[C@@H]2CCCN2C(=O)[C@H](CO)NC(=O)[C@H](CC(N)=O)NC(=O)[C@H](Cc2ccccc2)NC(=O)[C@H](CCC(=O)O)NC(=O)[C@H](CC(N)=O)NC(=O)[C@H](Cc2c[nH]c3ccccc23)NC(=O)[C@H](CO)NC1=O [Peptide L5-2] ({CH2CO}-YISWNEFNSPNWRFITCG-NH2; thioether N-17)				2.3e+06	71		Kd (c-Met-Fc; Table 10, c-Met-Fc): 5.4 nM
CC(C)C[C@@H]1NC(=O)[C@H](CC(N)=O)NC(=O)[C@H](Cc2c[nH]c3ccccc23)NC(=O)[C@H](C(C)C)NC(=O)[C@H](CCC(=O)O)NC(=O)[C@H](Cc2c[nH]cn2)NC(=O)[C@H]([C@@H](C)O)NC(=O)[C@H](CCCNC(=N)N)NC(=O)[C@H](CCCNC(=N)N)NC(=O)[C@H](CC(N)=O)NC(=O)[C@H](Cc2ccccc2)NC(=O)[C@H](CCC(N)=O)NC(=O)[C@H](CCCNC(=N)N)NC(=O)[C@@H](Cc2ccc(O)cc2)NC(=O)CSC[C@@H](C(=O)NCC(N)=O)NC(=O)[C@H](CC(=O)O)NC1=O [Peptide D4-3] ({CH2CO}-[dY]RQFNRRTHEVWNLDCG-NH2; thioether N-16; N-terminus and C-terminus assumed)		1.3e+06	3.7	2.4e+06	6	< 3.7	
CC(C)C[C@@H]1NC(=O)[C@H](CC(N)=O)NC(=O)[C@H](Cc2c[nH]c3ccccc23)NC(=O)[C@H](C(C)C)NC(=O)[C@H](CCC(=O)O)NC(=O)[C@H](Cc2c[nH]cn2)NC(=O)[C@H]([C@@H](C)O)NC(=O)[C@H](CCCNC(=N)N)NC(=O)[C@H](CCCNC(=N)N)NC(=O)[C@H](CC(N)=O)NC(=O)[C@H](Cc2ccccc2)N(C)C(=O)[C@H](CCC(N)=O)NC(=O)[C@H](CCCNC(=N)N)NC(=O)[C@@H](Cc2ccc(O)cc2)NC(=O)CSC[C@@H](C(=O)NCC(N)=O)NC(=O)[C@H](CC(=O)O)NC1=O [Peptide N4] ({CH2CO}-[dY]RQ[NMeF]NRRTHEVWNLDCG-NH2; thioether N-16; C-terminus assumed)	0.96 10^−2 s^−1	120000	21.1				
CC(C)C[C@@H]1NC(=O)[C@H](CC(N)=O)N(C)C(=O)[C@H](Cc2c[nH]c3ccccc23)NC(=O)[C@H](C(C)C)NC(=O)[C@H](CCC(=O)O)NC(=O)[C@H](Cc2c[nH]cn2)NC(=O)[C@H]([C@@H](C)O)NC(=O)[C@H](CCCNC(=N)N)NC(=O)[C@H](CCCNC(=N)N)NC(=O)[C@H](CC(N)=O)NC(=O)[C@H](Cc2ccccc2)NC(=O)[C@H](CCC(N)=O)NC(=O)[C@H](CCCNC(=N)N)NC(=O)[C@@H](Cc2ccc(O)cc2)NC(=O)CSC[C@@H](C(=O)NCC(N)=O)NC(=O)[C@H](CC(=O)O)NC1=O [Peptide N13] ({CH2CO}-[dY]RQFNRRTHEVW[NMeN]LDCG-NH2; thioether N-16; C-terminus assumed)		78000	4.5				
CC(C)C[C@@H]1NC(=O)[C@H](CC(N)=O)NC(=O)[C@H](Cc2c[nH]c3ccccc23)NC(=O)[C@H](C(C)C)NC(=O)[C@H](CCC(=O)O)NC(=O)[C@H](Cc2c[nH]cn2)NC(=O)[C@H]([C@@H](C)O)NC(=O)[C@H](CCCNC(=N)N)NC(=O)[C@H](CCCNC(=N)N)N(C)C(=O)[C@H](CC(N)=O)NC(=O)[C@H](Cc2ccccc2)NC(=O)[C@H](CCC(N)=O)NC(=O)[C@H](CCCNC(=N)N)NC(=O)[C@@H](Cc2ccc(O)cc2)NC(=O)CSC[C@@H](C(=O)NCC(N)=O)NC(=O)[C@H](CC(=O)O)NC1=O [Peptide N6] ({CH2CO}-[dY]RQFN[NMeR]RTHEVWNLDCG-NH2; thioether N-16; C-terminus assumed)	0.41 10^−2 s^−1	120000	85			67	Binding ability (in words) (c-Met-Fc): do not show marked deterioration; ka (c-Met-Fc; Table 9, c-Met-Fc): 1.2 10^5 M^−1s^−1; kd (c-Met-Fc; Table 9, c-Met-Fc): 0.41 10^−2s^−1; Stability in serum (in words) [1]: drastically improved
C[C@@H]1NC(=O)[C@H](Cc2ccc(O)cc2)NC(=O)[C@H](Cc2ccc(O)cc2)NC(=O)[C@H](Cc2c[nH]c3ccccc23)NC(=O)[C@@H](Cc2ccc(O)cc2)NC(=O)CSC[C@@H](C(=O)NCC(N)=O)NC(=O)[C@@H]2CCCN2C(=O)[C@H](Cc2ccccc2)NC(=O)[C@H](C)NC(=O)[C@H](CCCCN)NC(=O)[C@H](Cc2ccc(O)cc2)NC(=O)[C@H]([C@@H](C)O)NC(=O)[C@H](CCC(N)=O)NC(=O)[C@H](CC(=O)O)NC(=O)[C@H](Cc2c[nH]c3ccccc23)NC1=O [Peptide D5-4] ({CH2CO}-[dY]WYYAWDQTYKAFPCG-NH2; thioether N-15)				4.5e+06	97		Kd (c-Met-Fc; Table 10, c-Met-Fc): 4.6 nM
CC(C)C[C@@H]1NC(=O)[C@H](CC(N)=O)NC(=O)[C@H](Cc2c[nH]c3ccccc23)NC(=O)[C@H](C(C)C)NC(=O)[C@H](CCC(=O)O)NC(=O)[C@H](Cc2c[nH]cn2)NC(=O)[C@H]([C@@H](C)O)NC(=O)[C@H](CCCNC(=N)N)NC(=O)[C@H](CCCNC(=N)N)N(C)C(=O)[C@H](CC(N)=O)NC(=O)[C@H](Cc2ccccc2)NC(=O)[C@H](CCC(N)=O)NC(=O)[C@H](CCCNC(=N)N)NC(=O)[C@@H](Cc2ccc(O)cc2)NC(=O)CSC[C@@H](C(=O)NCC(N)=O)N(C)C(=O)[C@H](CC(=O)O)NC1=O [Peptide D4-3NMe] ({CH2CO}-[dY]RQFN[NMeR]RTHEVWNLD[NMeC]G-NH2; thioether N-16)						63	Kd (c-Met-Fc; Table 9, c-Met-Fc): 5.2 nM; kon (c-Met-Fc; Table 9, c-Met-Fc): 390000 M⁻¹ s⁻¹; Stability in human serum (undegraded portion/time) ([1]; 4 h): 67%/4 h; Stability in serum (in words) [1]: considerably excellent
CC(C)C[C@@H]1NC(=O)[C@H](CC(N)=O)NC(=O)[C@H](Cc2c[nH]c3ccccc23)NC(=O)[C@H](C(C)C)NC(=O)[C@H](CCC(=O)O)NC(=O)[C@H](Cc2c[nH]cn2)NC(=O)[C@H]([C@@H](C)O)NC(=O)[C@H](CCCNC(=N)N)NC(=O)[C@H](CCCNC(=N)N)NC(=O)[C@H](CC(N)=O)NC(=O)[C@H](Cc2ccccc2)NC(=O)[C@H](CCC(N)=O)NC(=O)[C@H](CCCNC(=N)N)NC(=O)[C@@H](Cc2ccc(O)cc2)NC(=O)CSC[C@@H](C(=O)NCC(N)=O)N(C)C(=O)[C@H](CC(=O)O)NC1=O [Peptide N16] ({CH2CO}-[dY]RQFNRRTHEVWNLD[NMeC]G-NH2; thioether N-16; C-terminus assumed)	1.0 10^−2 s^−1	980000	12			< 12	ka (c-Met-Fc; Table 9, c-Met-Fc): 9.8 10^5 M^−1s^−1; kd (c-Met-Fc; Table 9, c-Met-Fc): 1.0 10^−2s^−1
